Our source for the LC retention time values is the RepoRT retention time repository.

The series is described as follows: Waters ACQUITY UPLC BEH C18, 50 × 2.1 mm, 1.7 µm, 30 °C, 0.3 mL/min, estimated dead time 0.37 min; A: water + 0.3% formic acid; B: acetonitrile; gradient (min/%B) 0.5/5 3.5/20 5.5/25 7/57 8/90. The settings on record: stereoisomer not certain.
Turning to `CN1CCC23c4c5ccc(O)c4OC2C(O)C=CC3C1C5` (stereo unspecified), the LC retention time is 1.1 min.

With `CN1C2CCC1C(C(=O)O)C(OC(=O)c1ccccc1)C2` (stereo unspecified), the LC retention time was 3.31 min. As for `CNCC(C)c1ccccc1` (stereo unspecified), the LC retention time is 2.57 min. In the case of `O=C1NC(=NC2CC2)OC1c1ccccc1` (stereo unspecified), the LC retention time was 4.84 min. With `CC12C=CC(=O)C=C1CCC1C2C(=O)CC2(C)C1CCC2(O)C(=O)CO` (stereo unspecified), the LC retention time is 6.12 min.

For the compound `CC(C)(C)NCC(O)COc1nsnc1N1CCOCC1` (stereo unspecified), the LC retention time is 3.62 min. As to `COc1ccc(CC(C)NCC(O)c2ccc(O)c(NC=O)c2)cc1` (stereo unspecified), the LC retention time is 3.94 min. For the compound `CC(C)(C)NCC(O)COc1cccc2c1CCCC2=O` (stereo unspecified), the LC retention time was 4 min. Regarding `CC1C(c2ccccc2)OCCN1C` (stereo unspecified), the LC retention time is 2.55 min. On to `CC12CCC(=O)C=C1CCC1C2C(=O)CC2(C)C1CCC2(O)C(=O)CO` (stereo unspecified), for which the LC retention time was 6.31 min. Take `O=C(c1ccc(OCCN2CCCCC2)cc1)c1c(-c2ccc(O)cc2)sc2cc(O)ccc12`: the LC retention time was 6.58 min. As to `C=CCOc1ccccc1OCC(O)CNC(C)C` (stereo unspecified), the LC retention time is 4.66 min.

Turning to `NC(CC(O)COc1cccc2ccccc12)=NO` (stereo unspecified), the LC retention time was 4.76 min. `COC(=O)CCc1ccc(OCC(O)CNC(C)C)cc1` (stereo unspecified): the LC retention time is 4.31 min. Regarding `CC(C)NCC(O)COc1cccc2ccccc12` (stereo unspecified), the LC retention time is 5.78 min. As to `COCCc1ccc(OCC(O)CNC(C)C)cc1` (stereo unspecified), the LC retention time was 3.81 min.

As to `CCC(C(=O)OCCN1CCOC(c2ccccc2)C1C)c1ccccc1` (stereo unspecified), the LC retention time was 7.17 min. In the case of `CCNC1C2CCC(C2)C1c1ccccc1` (stereo unspecified), the LC retention time is 4.97 min. Turning to `CCC1(O)CCC2C3CCC4=CC(=O)CCC4=C3C=CC21CC` (stereo unspecified), the LC retention time was 7.79 min. As for `COc1ccccc1OCCNCC(O)COc1cccc2[nH]c3ccccc3c12` (stereo unspecified), the figure is 6.81 min. `CC(Cc1ccccc1)NCCn1cnc2c1c(=O)n(C)c(=O)n2C` (stereo unspecified): the LC retention time was 4.01 min.

`CC(CN1CCOCC1)C(C(=O)N1CCCC1)(c1ccccc1)c1ccccc1` (stereo unspecified): the LC retention time was 6.97 min. Regarding `CC(=O)OCC(=O)C12N=C(C)OC1CC1C3CCC4=CC(=O)C=CC4(C)C3C(O)CC12C` (stereo unspecified), the LC retention time is 7.2 min.

Take `CC(=O)Oc1c(C)cc(OCC(O)CNC(C)C)c(C)c1C` (stereo unspecified): the LC retention time was 5.62 min.

In the case of `CCC(=C(c1ccccc1)c1ccc(OCCN(C)C)cc1)c1ccccc1`, the LC retention time is 7.76 min. For the compound `CC(N)Cc1ccc2c(c1)OCO2` (stereo unspecified), the LC retention time was 2.5 min.

As to `Cc1cc2c(OCC(CNC(C)(C)C)OC(=O)c3ccccc3)cccc2[nH]1` (stereo unspecified), the LC retention time was 6.95 min. Turning to `OCc1cc(C(O)CNCCCCCCOCCCCc2ccccc2)ccc1O` (stereo unspecified), the LC retention time is 7.12 min. As for `CC(C)NCC(O)COc1ccc(CCOCC2CC2)cc1` (stereo unspecified), the figure is 6.11 min; as for `CC(CCc1ccccc1)NCC(O)c1ccc(O)c(C(N)=O)c1` (stereo unspecified), 5.1 min; as for `C#CCN(C)C(C)Cc1ccccc1` (stereo unspecified), 3.38 min. The result for `O=C(CS(=O)C(c1ccccc1)c1ccccc1)NO` (stereo unspecified) reads 5.7 min; that for `CC1(O)CCC2C3CCC4=CC(=O)CCC4=C3C=CC21C` (stereo unspecified), 7.12 min. On to `CC(C)(C)NCC(O)c1cc(O)cc(O)c1` (stereo unspecified), for which the LC retention time was 1.44 min. With `CCCC(Cc1ccccc1)N1CCCC1` (stereo unspecified), the LC retention time is 5.09 min. As for `Nc1nc(N)c(-c2ccccc2)s1`, the figure is 1.84 min.
